The results in this text go back to patent US6271215A, “Sulfated oligosaccharides having anticoagulant/antithrombotic activity” (The Australian National University, priority 1997, dated 2001).

One assay relates to human plasma. Briefly: Activated partial thromboplastin time (APTT) test, human plasma. As to conditions: for Increase in Coagulation Time: increase in coagulation time (seconds) from a 1 μg/ml increase in concentration, linear regression, pooled plasma from 90 donors; for anticoagulant activity (in words): APTT test; for Relative Increase in Coagulation Time: Human plasma, vs untreated control; for Coagulation Time: PI-88 8.6 μg/ml. The format is biochemical. The text has this: Heparin (anticoagulant activity 120 U/mg) is included for comparison. Data obtained with pooled plasma from 90 donors, the coagulation time of the plasma being 30.8 seconds in the absence of inhibitors. Results representative of four separate experiments. Table 1 summarises the anticoagulant activity of 19 sulfated oligosaccharides, as measured by the activated partial thromboplastin time (APTT) test. Similar results were obtained with the thrombin time test. […] Chain length, monosaccharide makeup and linkage, all appear to be critical factors. […] Furthermore, a striking feature of the maltose series is that chain elongation y a single residue from the maltotetraose to maltopentaose results in a 19-fold increase in anticoagulant activity. […] The glucose series of oligosaccharides emphasizes the importance of monosaccharide linkage on activity. […] There are additional, more subtle, effects of monosaccharide linkage on anticoagulant activity. […] Values | obtained from a linear regression analysis of the coagulation data. |^a Coagulation times estimated using the APTT test. Similar results | were obtained in duplicate assays. Concentrations of heparin and | mannopentaose phosphate SO4 (PI-88) were used which prolonged the |^a Coagulation times estimated by the APTT test. Data expressed as fold | increase in coagulation time induced by the anticoagulant compared with | untreated control.

For another assay, the system named is marmoset plasma. Kind of assay: APTT test, marmoset plasma. The format is biochemical. As to conditions: for Relative Increase in Coagulation Time: APTT, Marmoset plasma, vs untreated control. The text has this:
(§1) Some additional biological properties of one of the sulfated oligosaccharides, PI-88, were defined. […] Protamine is frequently used clinically to reverse the anticoagulant effects of heparin and Fragmin. […] Finally, PI-88 was examined for its ability to act as an anticoagulant in a range of mammalian species. […] Thus, sulfated oligosaccharides potentially can be used as anticoagulants/antithrombotics not only in humans but in a wide range of mammalian species.
(§2) ^a Coagulation times estimated by the APTT test. Data expressed as fold
(§3) increase in coagulation time induced by the anticoagulant compared with […]

The subject of the next assay is sheep plasma. Briefly: APTT test, sheep plasma. It is filed as biochemical. Conditions: for Relative Increase in Coagulation Time: APTT, Sheep plasma, vs untreated control.
Excerpt: as §1, §2, §3

The next assay concerns rabbit plasma. Kind of assay: APTT test, rabbit plasma. Conditions: for Relative Increase in Coagulation Time: APTT, Rabbit plasma, vs untreated control. It is filed as biochemical.
Excerpt: as §1, §2, §3

Another assay has as its system dog plasma. Kind of assay: APTT test, dog plasma. It is filed as biochemical. As to conditions: for Relative Increase in Coagulation Time: APTT, Dog plasma, vs untreated control.
Excerpt: as §1, §2, §3

The next assay deals with rat plasma. Kind of assay: APTT test, rat plasma. The format is biochemical. As to conditions: for Relative Increase in Coagulation Time: APTT, Rat plasma, vs untreated control.
Excerpt: as §1, §2, §3

The subject of a further assay is mouse plasma. Kind of assay: APTT test, mouse plasma. It is filed as biochemical. Conditions: for Relative Increase in Coagulation Time: APTT, Mouse plasma, vs untreated control.
Excerpt: as §1, §2, §3

Another assay deals with Human platelet. Kind of assay: Collagen- or ADP-induced platelet aggregation (platelet aggregometer). The format is cell-based. As to conditions: for Relative Rate of Platelet Aggregation, ADP-induced Aggregation: ADP 10 μM, control without PI-88 81 ± 1; for Relative Rate of Platelet Aggregation, ADP-induced Aggregation / Relative Rate of Platelet Aggregation, Collagen-induced Aggregation: ± SD; for Relative Rate of Platelet Aggregation, Collagen-induced Aggregation: collagen 9 μg/ml, control without PI-88 114 ± 8. The method, then:
^a Human platelet aggregation induced by either collagen (9 μg/ml)
or ADP (10 μM) and relative rates of platelet aggregation estimated, in
the presence or absence of PI-88, using a platelet aggregometer. Data ±
SD representative of two platelet donors.

The next assay concerns thrombin. Briefly: Anti-thrombin III mediated anti-thrombin activity, chromogenic assays. The format is biochemical. The text has this: (§4) The manner by which the sulfated oligosaccharides inhibit the coagulation cascade was then investigated.
The subject of the next assay is factor Xa. Briefly: Anti-thrombin III mediated anti-factor Xa activity, chromogenic (Helena) anti-Xa assay. Conditions: FIG. 3. It is filed as biochemical. The method, then: Factor Xa activity was determined with the chromogenic (Helena) anti-Xa assay run on a Roche COBAS Fara biochemistry analyser.
as §4

The next assay has as its system heparin cofactor II. Kind of assay: Plasma free system: purified heparin cofactor II, thrombin and chromogenic thrombin substrate. It is filed as biochemical. Conditions: data not shown.
Excerpt: as §4

Assay [1] is described as follows: Inactivation of anticoagulant activity by protamine. It is filed as biochemical.
Excerpt: as §1

Turning to Laminarihexaose SO4, the “Increase in Coagulation Time” value in the assay with human plasma (APTT) is 0.9 s/µg.
The same measure, in the same setting: the figure for Maltoetraose SO4 is 0.28 s/µg.
Regarding Chitosan hexamer SO4, in the assay on human plasma, the “anticoagulant activity (in words)” value is listed as “negligible anticoagulant activity”. In the assay on human plasma (APTT), the “Increase in Coagulation Time” value was determined as 0.4 s/µg.
As for Cellohexaose SO4, the “Increase in Coagulation Time” value in the assay on human plasma (APTT) is 4.8 s/µg.
Regarding Cellotetraose SO4, the “anticoagulant activity (in words)” value in the assay on human plasma is “reasonably potent anticoagulant”. In the assay with human plasma (APTT), the “Increase in Coagulation Time” value turned out to be 4.2 s/µg.
In the case of Mannopentaose phosphate SO2 (PI-88), the “Increase in Coagulation Time” value with human plasma (APTT) was determined as 5.67 s/µg.
For Mannopentaose phosphate SO4 (PI-88), in the assay on human plasma (APTT), the “Increase in Coagulation Time” value came out at 5.04 s/µg.
Turning to Laminaritetraose SO4, the “Increase in Coagulation Time” value in the assay on human plasma (APTT) amounted to 2.9 s/µg.
As to Maltopentaose SO4, in the assay with human plasma, the “anticoagulant activity (in words)” value is “quite effective anticoagulants”. The “Increase in Coagulation Time” value in the assay with human plasma (APTT) came out at 5.25 s/µg. For the same compound, in the assay with human plasma (APTT, relative to the maltotetraose sulfate), the “increase in anticoagulant activity on chain elongation from maltotetraose to maltopentaose” value is 19 fold.
With Laminariheptaose SO4, the “Increase in Coagulation Time” value in the assay on human plasma (APTT) came out at 0.5 s/µg.
As to Maltohexaose SO4, in the assay on human plasma, the “anticoagulant activity (in words)” value is recorded as “quite effective anticoagulants”. In the assay with human plasma (APTT), the “Increase in Coagulation Time” value was determined as 5.85 s/µg.
For the compound Isomaltohexaose SO4, the “Increase in Coagulation Time” value with human plasma (APTT) was 6.56 s/µg.
Same read-out and setting: the figure for Maltose SO4 is 0.31 s/µg.
In the case of Maltoheptaose SO4, the “anticoagulant activity (in words)” value in the assay with human plasma is on record as “quite effective anticoagulants”. For the same compound, the “Increase in Coagulation Time” value in the assay with human plasma (APTT) stood at 5.9 s/µg.
As to Maltotriose SO4, in the assay with human plasma (APTT), the “Increase in Coagulation Time” value was found to be 0.25 s/µg.
Regarding Isomaltopentaose SO4, the “anticoagulant activity (in words)” value in the assay with human plasma was “substantially less effective anticoagulant”. The “Increase in Coagulation Time” value in the assay with human plasma (APTT) is 1.85 s/µg.
Consider Cellopentaose SO4, for which the “Increase in Coagulation Time” value in the assay with human plasma (APTT) turned out to be 3.5 s/µg.
For Mannopentaose SO4, the “Increase in Coagulation Time” value in the assay on human plasma (APTT) came out at 5.32 s/µg.
Consider mannopentaose phosphate sulfate [PI-88], for which the “Relative Increase in Coagulation Time” value was 1.42 fold in the assay with human plasma (APTT, PI-88 2.24 μg/ml); 4.65 fold in the assay with human plasma (APTT, PI-88 22.4 μg/ml); 1.40 fold in the assay with marmoset plasma (PI-88 2.24 μg/ml); 2.86 fold in the assay on marmoset plasma (PI-88 22.4 μg/ml); 1.88 fold in the assay on sheep plasma (PI-88 2.24 μg/ml); > 4.98 fold in the assay on sheep plasma (PI-88 22.4 μg/ml). In addition, the “Relative Increase in Coagulation Time” value is 1.02 fold in the assay on rabbit plasma (PI-88 2.24 μg/ml); 1.20 fold in the assay with rabbit plasma (PI-88 22.4 μg/ml); 1.24 fold with dog plasma (PI-88 2.24 μg/ml); 2.42 fold in the assay on dog plasma (PI-88 22.4 μg/ml); 1.54 fold in the assay with rat plasma (PI-88 2.24 μg/ml); > 5.88 fold with rat plasma (PI-88 22.4 μg/ml). Also, the “Relative Increase in Coagulation Time” value in the assay with mouse plasma (PI-88 2.24 μg/ml) was determined as 1.13 fold; with mouse plasma (PI-88 22.4 μg/ml), 3.03 fold. Further, the “Coagulation Time” value in the assay on human plasma (APTT, Mean ± SD of 20 normal donors) came to 88.3 ± 11.9 s; in the assay with human plasma (APTT, Normal Donor 1), 77.3 s; with human plasma (APTT, Normal Donor 2), 89.6 s; in the assay on human plasma (APTT, Normal Donor 3), 94.0 s; with human plasma (APTT, Normal Donor 4) it was 85.6 s; with human plasma (APTT, Normal Donor 5), 101.9 s. Moreover, the “Coagulation Time” value in the assay on human plasma (APTT, Normal Donor 6) was found to be 95.0 s; in the assay on human plasma (APTT, Normal Donor 7), 115.3 s; with human plasma (APTT, Normal Donor 8), 101.9 s; in the assay with human plasma (APTT, Normal Donor 9), 85.2 s; in the assay on human plasma (APTT, Normal Donor 10) it was 78.0 s; with human plasma (APTT, Normal Donor 11) it was 93.6 s. For the same compound, the “Coagulation Time” value was 82.9 s in the assay with human plasma (APTT, Normal Donor 12); 85.5 s with human plasma (APTT, Normal Donor 13); 89.7 s in the assay on human plasma (APTT, Normal Donor 14); 81.2 s in the assay with human plasma (APTT, Normal Donor 15); 72.6 s in the assay with human plasma (APTT, Normal Donor 16); 108.0 s in the assay with human plasma (APTT, Normal Donor 17). Further, the “Coagulation Time” value in the assay with human plasma (APTT, Normal Donor 18) turned out to be 70.4 s; in the assay with human plasma (APTT, Normal Donor 19), 93.6 s; in the assay with human plasma (APTT, Normal Donor 20) it was 72.6 s. The “ability to act as an anticoagulant (in words)” value in the assay on human plasma (human plasma) is on record as “effective anticoagulant”; in the assay on marmoset plasma (marmoset plasma), “effective anticoagulant”; with sheep plasma (sheep plasma) it was “effective anticoagulant”; in the assay with rabbit plasma (rabbit plasma), “only weakly active”; in the assay with dog plasma (dog plasma) it was “effective anticoagulant”; with rat plasma (rat plasma), “effective anticoagulant”. Besides, the “ability to act as an anticoagulant (in words)” value with mouse plasma (mouse plasma) is on record as “effective anticoagulant”. The “inhibition of collagen- and ADP-induced platelet aggregation (in words)” value in the assay with Human platelet is “very weak inhibitor”. In addition, the “Relative Rate of Platelet Aggregation, ADP-induced Aggregation” value in the assay with Human platelet (PI-88 21 μg/ml) was determined as 74 ± 1; with Human platelet (PI-88 210 μg/ml) it was 72 ± 1; in the assay with Human platelet (PI-88 2100 μg/ml) it was 56 ± 2. The “Relative Rate of Platelet Aggregation, Collagen-induced Aggregation” value with Human platelet (PI-88 21 μg/ml) turned out to be 97 ± 8; with Human platelet (PI-88 210 μg/ml), 86 ± 10; in the assay with Human platelet (PI-88 2100 μg/ml), 79 ± 0. Besides, the “enhancement of the ability of anti-thrombin III to inhibit thrombin (in words)” value in the assay with thrombin (initial studies) is “did not enhance”. The “fold less active than heparin in enhancing anti-thrombin III mediated anti-thrombin activity” value in the assay with thrombin (two different chromogenic assays, data not shown) is listed as 700-7000 fold. In addition, the “fold less active than heparin or LMW heparin (Fragmin), anti-thrombin III mediated factor Xa inhibitory activity” value in the assay with factor Xa is reported as 100-1000 fold. The “enhancement of the ability of heparin cofactor II to inhibit thrombin (in words)” value in the assay with heparin cofactor II is “as effectively as heparin and dermatan sulfate”. In addition, the “inactivation of the anticoagulant activity by protamine (in words)” value in assay [1] is on record as “effectively inactivate”.
`O=S(=O)(O)OC[C@H]1O[C@@](COS(=O)(=O)O)(O[C@H]2O[C@H](COS(=O)(=O)O)[C@@H](OS(=O)(=O)O)[C@H](OS(=O)(=O)O)[C@H]2OS(=O)(=O)O)[C@@H](OS(=O)(=O)O)[C@@H]1OS(=O)(=O)O` [Sucrose SO4]: the “Increase in Coagulation Time” value with human plasma (APTT) came out at 0.39 s/µg.
